The source of these data is publication PMC10325900, “A conserved motif in the disordered linker of human MLH1 is vital for DNA mismatch repair and its function is diminished by a cancer family mutation” (Nucleic Acids Research, 2023).

The test system of one experiment is yMLH1-yPMS1. The arrangement: method as in Torres et al. [100]. The conditions noted are these: 25mer yeast peptide, molar ratio 0-250-500-1000 to yMLH1-PMS1, MLH1-PMS2 35 nM, 1 mM Mn2+; ref Torres et al. [100]; cited from earlier work.
The next experiment deals with T1, MLH1-ΔConMot-PMS2 (Homo sapiens, UniProt P40692+P54278, DEL377-396).
T1 construct: The pcDNA3 expression vector containing the entire open reading frame of human MLH1; expressed in transfected cells; host or cells: HEK293T (MLH1-deficient), transiently co-transfected
T1 sequence (P40692 with tags, fused parts or gaps DEL377-396): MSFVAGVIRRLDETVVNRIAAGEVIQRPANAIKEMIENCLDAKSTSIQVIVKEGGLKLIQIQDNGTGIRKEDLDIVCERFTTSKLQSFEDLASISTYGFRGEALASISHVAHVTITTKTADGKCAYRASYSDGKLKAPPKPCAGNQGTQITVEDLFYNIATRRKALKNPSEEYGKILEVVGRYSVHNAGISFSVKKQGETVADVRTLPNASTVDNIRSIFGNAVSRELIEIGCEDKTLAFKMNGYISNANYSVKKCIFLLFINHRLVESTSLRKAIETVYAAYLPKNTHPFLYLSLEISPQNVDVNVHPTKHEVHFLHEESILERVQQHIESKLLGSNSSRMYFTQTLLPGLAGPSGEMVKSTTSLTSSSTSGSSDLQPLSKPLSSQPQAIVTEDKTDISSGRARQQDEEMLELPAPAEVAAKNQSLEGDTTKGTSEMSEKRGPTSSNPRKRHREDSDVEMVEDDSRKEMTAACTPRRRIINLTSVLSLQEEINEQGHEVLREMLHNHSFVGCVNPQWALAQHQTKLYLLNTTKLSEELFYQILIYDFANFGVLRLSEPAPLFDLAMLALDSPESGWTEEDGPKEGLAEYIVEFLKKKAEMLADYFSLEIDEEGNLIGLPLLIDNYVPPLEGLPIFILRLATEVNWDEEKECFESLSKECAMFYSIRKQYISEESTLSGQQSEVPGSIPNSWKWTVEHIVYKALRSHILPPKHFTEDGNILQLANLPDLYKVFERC
T1 sequence (P54278 1-862 partner): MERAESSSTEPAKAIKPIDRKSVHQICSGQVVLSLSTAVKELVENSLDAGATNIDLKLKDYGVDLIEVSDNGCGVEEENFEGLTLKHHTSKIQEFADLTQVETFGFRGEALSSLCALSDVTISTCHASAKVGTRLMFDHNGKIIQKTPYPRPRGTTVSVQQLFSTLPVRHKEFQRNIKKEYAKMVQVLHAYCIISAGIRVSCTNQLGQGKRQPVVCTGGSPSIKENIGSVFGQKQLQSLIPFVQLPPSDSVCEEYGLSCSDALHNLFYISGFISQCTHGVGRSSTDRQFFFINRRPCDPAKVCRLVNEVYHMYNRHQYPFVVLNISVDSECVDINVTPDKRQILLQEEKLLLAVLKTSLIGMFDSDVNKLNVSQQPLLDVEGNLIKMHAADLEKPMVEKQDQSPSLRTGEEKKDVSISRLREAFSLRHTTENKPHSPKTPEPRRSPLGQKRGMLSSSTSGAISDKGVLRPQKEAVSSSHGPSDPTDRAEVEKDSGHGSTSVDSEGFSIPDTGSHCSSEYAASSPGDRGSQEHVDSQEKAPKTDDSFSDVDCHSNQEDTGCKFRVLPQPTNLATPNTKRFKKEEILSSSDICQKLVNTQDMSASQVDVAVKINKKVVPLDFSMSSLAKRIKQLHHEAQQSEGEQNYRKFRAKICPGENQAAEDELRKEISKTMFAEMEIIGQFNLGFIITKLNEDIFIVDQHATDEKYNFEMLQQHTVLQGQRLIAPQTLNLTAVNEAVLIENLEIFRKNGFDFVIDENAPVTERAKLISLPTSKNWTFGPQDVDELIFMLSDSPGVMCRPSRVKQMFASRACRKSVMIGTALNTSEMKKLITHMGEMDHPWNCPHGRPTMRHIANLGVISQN
As to the kind of experiment: DNA mismatch repair (MMR) complementation assay with peptide, MLH1-ΔConMot variant. In kind it is biochemical. Here is the method:
Mismatch repair activity was assessed as described in detail before ([79],[81]) (Supplementary Figure S3). […] Mismatched DNA plasmid substrate (Supplementary Figure S3) prepared according to previously published procedures ([81–83]) was added, and reactions in a final volume of 25 μl were incubated at 37°C for 15 min. Repair efficiency was scored by purifying the mismatched DNA plasmid from the reaction and assessing the fraction of homoduplex sequence by restriction digestion of the mismatched site using EcoRV. The substrate was additionally linearized with AseI.
For complementation assays with peptide, the indicated peptide(s) were used at stock concentrations of 50 or 500 μM in HEPES–KOH 20 mM pH 7.6 and supplemented to the MMR reactions.
Figure 4. Reaction of DNA mismatch repair to addition of ConMot peptide. (A) Nuclear extract of MLH1-proficient HEK293 cells was used for performing the DNA mismatch repair reaction. Four reactions were undertaken, with two reactions supplemented with either 7.5 μM or 75 μM ConMot-32 peptide. A negative control reaction was performed by omitting the 37°C repair incubation. (B) MMR reactions were performed with nuclear extract of MLH1-deficient HEK293T cells supplemented with extract of cells transfected either with wildtype MLH1-PMS2 (positive control) or with MLH1-ΔConMot-PMS2. To these MMR reactions, different peptides were added at a concentration of 75 μM: A ConMot-32 peptide (A), a Scramble-32 peptide (B) in which the conserved ConMot sequence is scrambled, and a short ConMot-20 peptide (C) that only contains the twenty highly conserved ConMot residues. The peptide sequences are given below the gel image. (C) The concentration-dependence of the MMR-activating effect of the ConMot-32 peptide observed in (B) was measured over a concentration range from 1–75 μM. (D) Theoretical binding curves of a ligand (peptide) to a protein were calculated for dissociation constants (KD) of 1, 5 and 10 μM for a protein concentration as present for MLH1-PMS2 in the MMR assay reactions (see also Supplementary Figure S3). Into this diagram, the average MMR activities (and standard deviations) measured in >3 of the experiment exemplarily shown in C were introduced as bars at ConMot-32 peptide concentrations of 1, 2.5, 7.5, 18 and 75 μM.
Second, we used extract of the repair-deficient cell line HEK293T supplemented with either wildtype MutLα (MLH1-PMS2) or the ΔConMot deletion variant, corresponding to experiment shown in Figure 2B. In this experiment, we again added ConMot peptide.
We investigated the effect of the ConMot peptide more closely by titrating the required peptide concentrations for activation. We determined that the mismatch repair reactions performed in this study contained approximately 280 fmol MLH1 (Supplementary Figure S4A and B), which is in good agreement with previous quantifications of MLH1-PMS2 in cells and extracts ([96]). […] Dissociation constants (KD) for peptides to proteins are typically in the range of 1–10 μM ([97]). We compared the measured concentration-dependent MMR activities with theoretical binding curves of (peptide) ligands to (protein) substrates for KD values of 1, 5 and 10 μM (Supplementary Figure S4C) at the determined MLH1 concentration. […] It is therefore plausible that a binding reaction of the ConMot peptide (to a protein) underlies the restauration of MMR activity. […]
Deletion C on M ot (∆Co nMot) c.1129_1188del CTGCAGCCTCTGAGCAAA […]
Del et i on comp are (∆Compare) c.1221_1280del […] ACTGGACAGGGGTTTGCT
Scramble c.1147_1160delinsGAC ggtacgtTCCCGGGAACAGAAGCT atagtgtcCTGGTGGGCATAGACCT
p.(M383_D387delinsDTMVR) ACTATGGTAC G T TATC
ConMot hy bri d gcataTCTGCAGCCTCTGAGCAA acagg[…]
Supplementary Table 1: Analyzed variant inf ormation.
Variant descriptions confer to HGVS format and refer to the MLH1 reference cDNA (NM_000249.4) […]

In experiment [1] the target is MLH1-ΔConMot-PMS2 (MutLα heterodimer with the ConMot deletion variant of MLH1) (human) (UniProt P40692).

Consider KAKRQENKL VRI D ASQAKITSFLSS [25mer], for which the “effect of peptide on endonuclease activation of yMLH1-yPMS1” value with yMLH1-yPMS1 was “inhibiting endonuclease activit y”.
For “SGSSDMVQFEKLKDRRSQDATYVAHLQPLSKP [Scramble-32]”, at MLH1-ΔConMot-PMS2 (peptide 75 μM (Figure 4B), HEK293T nuclear extract 50 μg + 5 μg transfected extract, 25 μl, 37°C, 15 min, EcoRV/AseI digestion, agarose gel), the “restoration of DNA mismatch repair activity of the ΔConMot variant” value was “did not restore MMR activity”.
For the molecule KVYAHQMVRTDSREQKLDAF [ConMot-20], the “effect of 20mer-ConMot on MMR restauration by the 32mer-ConMot” value at MLH1-ΔConMot-PMS2 (Figure 4B, peptides at 75 μM, combined peptides, 37°C, 15 min) was “did not affect MMR restauration”. Also, the “effect of peptide on MMR (summary in Supplementary Table 2)” value at MLH1-ΔConMot-PMS2 (molar ratio 0-860-2300-8600 to hMLH1-PMS2, Tris-HCl pH 7.5, 5 mM Mg2+, 1.5 mM ATP) was “inactive”.
As for SGSSDKVYAHQMVRTDSREQKLDAFLQPLSK [ConMot-32 peptide (32-mer peptide containing the sequence of the MLH1-ConMot)], the KD read by comparing the concentration-dependent MMR restoration with theoretical binding curves of a peptide ligand to a protein at the determined MLH1 concentration in experiment [1] was 7.5 µM.
